Assay results from PubChem BioAssay (NCI).
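Cultured in 96-well plates, cells were exposed to test compound for 48 hours across five concentrations. Abbreviation: GI50, concentration required for 50% inhibition of growth. The concentration for full growth arrest is given as TGI.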

What was measured:
Assay in all cases: DTP human tumour cell line panel, 48 h
[1] = test system: 786-0 renal
[2] = test system: A498 renal
[3] = test system: A549 NSCLC
[4] = test system: ACHN renal
[5] = test system: BT-549 breast
[6] = test system: CAKI-1 renal
[7] = test system: CCRF-CEM leukemia
[8] = test system: DU-145 prostate
[9] = test system: EKVX NSCLC
[10] = test system: HCC-2998 colon
[11] = test system: HCT-116 colon
[12] = test system: HCT-15 colon
[13] = test system: HL-60(TB) leukemia
[14] = test system: HOP-62 NSCLC
[15] = test system: HOP-92 NSCLC
[16] = test system: HS 578T breast
[17] = test system: HT29 colon
[18] = test system: IGROV1 ovarian
[19] = test system: K-562 leukemia
[20] = test system: KM12 colon
[21] = test system: LOX IMVI melanoma
[22] = test system: M14 melanoma
[23] = test system: MALME-3M melanoma
[24] = test system: MCF7 breast
[25] = test system: MDA-MB-231 breast
[26] = test system: MDA-MB-435
[27] = test system: MDA-MB-468 breast
[28] = test system: MOLT-4 leukemia
[29] = test system: NCI-H226 lung
[30] = test system: NCI-H23 lung
[31] = test system: NCI-H522 lung
[32] = test system: NCI/ADR-RES ovarian
[33] = test system: OVCAR-3 ovarian
[34] = test system: OVCAR-4 ovarian
[35] = test system: OVCAR-5 ovarian
[36] = test system: OVCAR-8 ovarian
[37] = test system: PC-3 prostate
[38] = test system: RPMI-8226 leukemia
[39] = test system: RXF 393 renal
[40] = test system: SF-268 CNS
[41] = test system: SF-295 CNS
[42] = test system: SF-539 CNS
[43] = test system: SK-MEL-2 melanoma
[44] = test system: SK-MEL-28 melanoma
[45] = test system: SK-MEL-5 melanoma
[46] = test system: SN12C renal
[47] = test system: SNB-19 CNS
[48] = test system: SNB-75 CNS
[49] = test system: SW-620 colon
[50] = test system: T-47D breast
[51] = test system: TK-10 renal
[52] = test system: U251 CNS
[53] = test system: UACC-257 melanoma
[54] = test system: UACC-62 melanoma

SMILES: Cc1ccc2c(c1)nc(-c1ccccc1)n2CC(=O)N=Nc1c(O)[nH]c2ccc(Br)cc12
- GI50 [1]: 1730 nM
- TGI [1]: 3.16 µM
- GI50 [2]: 2000 nM
- TGI [2]: 3.99 µM
- GI50 [3]: 1900 nM
- TGI [3]: 4.03 µM
- GI50 [4]: 1590 nM
- TGI [4]: 2940 nM
- GI50 [5]: 1850 nM
- TGI [5]: 3.53 µM
- GI50 [6]: 1540 nM
- TGI [6]: 3.62 µM
- GI50 [7]: 2090 nM
- TGI [7]: 4.96 µM
- GI50 [8]: 2290 nM
- TGI [8]: 4.85 µM
- GI50 [9]: 1380 nM
- TGI [9]: 2920 nM
- GI50 [10]: 1850 nM
- TGI [10]: 3.44 µM
- GI50 [11]: 1740 nM
- TGI [11]: 3.34 µM
- GI50 [12]: 1690 nM
- TGI [12]: 3.18 µM
- GI50 [13]: 3.16 µM
- TGI [13]: > 100 µM
- GI50 [14]: 1750 nM
- TGI [14]: 3.39 µM
- GI50 [15]: 1220 nM
- TGI [15]: 2640 nM
- GI50 [16]: 1860 nM
- TGI [16]: 5.62 µM
- GI50 [17]: 1780 nM
- TGI [17]: 3.45 µM
- GI50 [18]: 1710 nM
- TGI [18]: 3.29 µM
- GI50 [19]: 3.15 µM
- TGI [19]: > 100 µM
- GI50 [20]: 2060 nM
- TGI [20]: 4.89 µM
- GI50 [21]: 1550 nM
- TGI [21]: 2910 nM
- GI50 [22]: 1690 nM
- TGI [22]: 3.35 µM
- GI50 [23]: 1630 nM
- TGI [23]: 3.1 µM
- GI50 [24]: 1540 nM
- TGI [24]: 3.16 µM
- GI50 [25]: 1890 nM
- TGI [25]: 4.25 µM
- GI50 [26]: 1680 nM
- TGI [26]: 3.77 µM
- GI50 [27]: 1750 nM
- TGI [27]: 3.18 µM
- GI50 [28]: 2220 nM
- TGI [28]: 5.62 µM
- GI50 [29]: 1470 nM
- TGI [29]: 2970 nM
- GI50 [30]: 1770 nM
- TGI [30]: 3.36 µM
- GI50 [31]: 1870 nM
- TGI [31]: 4.1 µM
- GI50 [32]: 1700 nM
- TGI [32]: 3.27 µM
- GI50 [33]: 1910 nM
- TGI [33]: 3.45 µM
- GI50 [34]: 1830 nM
- TGI [34]: 3.81 µM
- GI50 [35]: 1830 nM
- TGI [35]: 4.28 µM
- GI50 [36]: 1890 nM
- TGI [36]: 3.8 µM
- GI50 [37]: 1560 nM
- TGI [37]: 3.16 µM
- GI50 [38]: 2180 nM
- TGI [38]: 5.46 µM
- GI50 [39]: 773 nM
- TGI [39]: 2220 nM
- GI50 [40]: 2440 nM
- TGI [40]: 8.56 µM
- GI50 [41]: 1540 nM
- TGI [41]: 2930 nM
- GI50 [42]: 1630 nM
- TGI [42]: 3.02 µM
- GI50 [43]: 1810 nM
- TGI [43]: 3.64 µM
- GI50 [44]: 1650 nM
- TGI [44]: 3.06 µM
- GI50 [45]: 1740 nM
- TGI [45]: 3.58 µM
- GI50 [46]: 1780 nM
- TGI [46]: 4.16 µM
- GI50 [47]: 1950 nM
- TGI [47]: 4.28 µM
- GI50 [48]: 1100 nM
- TGI [48]: 3.06 µM
- GI50 [49]: 2200 nM
- TGI [49]: 5.47 µM
- GI50 [50]: 1820 nM
- TGI [50]: 4.4 µM
- GI50 [51]: 3.12 µM
- TGI [51]: 7.14 µM
- GI50 [52]: 1760 nM
- TGI [52]: 3.43 µM
- GI50 [53]: 1730 nM
- TGI [53]: 3.81 µM
- GI50 [54]: 1440 nM
- TGI [54]: 2800 nM
